Source: patent US10307413B2, “Tetrahydro- and dihydro-isoquinoline PRMT5 inhibitors and uses thereof” (Epizyme, Inc., priority 2013, dated 2019)

Assays:
[1] = tested on: symmetric di-methyl arginine in Z-138 cells; experiment: Z-138 Methylation Assay (In Cell Western for symmetric di-methyl arginine and DNA content); type: cell-based; details: Homo sapiens, read-out: ICW EC50
In short: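 In-cell western: symmetric di-methyl arginine signal ratioed to DRAQ5 DNA content after 96 h compound exposure of Z-138 cells seeded at 50,000 cells/mL.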

[2] = tested on: Z-138 cell line; experiment: Z-138 Proliferation Assay (Cell Titer Glo, 5 days); type: cell-based; details: Homo sapiens, 120 h; Z-138 cells, 5 days; read-out: Proliferation EC50
In short: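 Viability via CellTiter-Glo luminescence (ATP) after 5-day incubation at 37 °C, 5% CO2. Compounds tested in triplicate, nine 3-fold steps, highest final concentration 20 μM in 0.2% DMSO; 50% inhibitory concentration by 4-parameter fit of normalized curves.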

EC50 [1] | SMILES | EC50 [2]
101 to 1000 nM | O=C(NC[C@H](O)CN1CCc2ccccc2C1)c1ccc2c(c1)OCO2 [Compound 244] | 1000 to 10000 nM
< 100 nM | [2H]C1([2H])Cc2ccccc2C([2H])([2H])N1C[C@@H](O)CNC(=O)c1cc(NC2COC2)ncn1 [Compound 337] | 101 to 1000 nM
< 100 nM | O=C(NCC(O)CN1CCc2ccccc2C1)c1cccc(NC2CCN(CC(F)(F)F)C2)c1 (stereo not drawn) [Compound 102] | 1000 to 10000 nM
< 100 nM | O=C(NCC(O)CN1CCc2ccccc2C1)c1ccc(NC2CCN(CC(F)(F)F)CC2)cc1 (stereo not drawn) [Compound 128] | 1000 to 10000 nM
< 100 nM | O=C(NCC(O)CN1CCc2ccccc2C1)c1cccc(-c2cccnc2)c1 (stereo not drawn) [Compound 8, N-(3-(3,4-dihydroisoquinolin-2(1H)-yl)-2-hydroxypropyl)-3-(pyridin-3-yl)benzamide] | 1000 to 10000 nM
101 to 1000 nM | O=C(NC[C@H](O)CN1CCc2ccccc2C1)c1ccc2[nH]cnc2c1 [Compound 294] | 1000 to 10000 nM
< 100 nM | O=C(NC[C@H](O)CN1CCc2ccccc2C1)c1cc(NC2CCNC2)ncn1 (stereo partly drawn) [Compound 209] | 10000 to 50000 nM
< 100 nM | Cc1ccc2cc(C(=O)NC[C@H](O)CN3CCc4ccccc4C3)ccc2n1 [Compound 221, (S)—N-(3-(3,4-dihydroisoquinolin-2(1H)-yl)-2-hydroxypropyl)-2-methylquinoline-6-carboxamide] | 101 to 1000 nM
< 100 nM | O=C(NC[C@H](O)CN1CCc2ccccc2C1)c1cc2c(F)cccc2[nH]1 [Compound 296] | 101 to 1000 nM
< 100 nM | O=C(NC[C@H](O)CN1CCc2ccccc2C1)c1ccnc(NC2CCOCC2)c1 [Compound 192] | 101 to 1000 nM
< 100 nM | CC(=O)N(C)CCN(C)c1cc(C(=O)NC[C@H](O)CN2CCc3ccccc3C2)ccn1 [Compound 291] | 1000 to 10000 nM
101 to 1000 nM | O=C(NCC(O)CN1CCc2ccccc2C1)c1cccc(-c2cc[nH]n2)c1 (stereo not drawn) [Compound 10] | 1000 to 10000 nM
< 100 nM | CC(C)N1CCC(Nc2cccc(C(=O)NCC(O)CN3CCc4ccccc4C3)c2)CC1 (stereo not drawn) [Compound 103] | 10000 to 50000 nM
< 100 nM | CN1CCC(Oc2cc(C(=O)NC[C@H](O)CN3CCc4ccccc4C3)ccn2)CC1 [Compound 202] | 1000 to 10000 nM
< 100 nM | O=C(NC[C@H](O)CN1CCc2ccccc2C1)c1ccc(OC2CCN(Cc3ccccc3)CC2)cc1 [Compound 330] | < 100 nM
101 to 1000 nM | CCN1CCN(Cc2cccc(C(=O)NCC(O)CN3CCc4ccccc4C3)c2)CC1 (stereo not drawn) [Compound 90] | 10000 to 50000 nM
< 100 nM | CN1CCC(Oc2cncc(C(=O)NC[C@H](O)CN3CCc4ccccc4C3)c2)CC1 [Compound 288] | < 100 nM
< 100 nM | COc1ccc2cc(C(=O)NC[C@H](O)CN3CCc4ccccc4C3)ccc2c1 [Compound 251] | 1000 to 10000 nM
101 to 1000 nM | CC(=O)NCCN1CCN(Cc2cccc(C(=O)NCC(O)CN3CCc4ccccc4C3)c2)CC1 (stereo not drawn) [Compound 156] | 1000 to 10000 nM
< 100 nM | O=C(NC[C@H](O)CN1CCc2ccccc2C1)c1ccccc1 [Compound 3, (S)—N-(3-(3,4-dihydroisoquinolin-2(1H)-yl)-2-hydroxypropyl)benzamide] | 1000 to 10000 nM
101 to 1000 nM | CC(=O)N(C)CCN1CCN(Cc2cccc(C(=O)NCC(O)CN3CCc4ccccc4C3)c2)CC1 (stereo not drawn) [Compound 252] | 1000 to 10000 nM
< 100 nM | CC(=O)N1CCC(Oc2ccc(C(=O)NCC(O)CN3CCc4ccccc4C3)cc2)C1 (stereo not drawn) [Compound 197] | 101 to 1000 nM
< 100 nM | NC(=O)CN1CCN(Cc2cccc(C(=O)NCC(O)CN3CCc4ccccc4C3)c2)CC1 (stereo not drawn) [Compound 172] | 1000 to 10000 nM
< 100 nM | CN(CCN(C)S(C)(=O)=O)c1cc(C(=O)NC[C@H](O)CN2CCc3ccccc3C2)ccn1 [Compound 263] | 1000 to 10000 nM
< 100 nM | O=C(NC[C@H](O)CN1CCc2ccccc2C1)c1ccnc(NCC2CC2)c1 [Compound 187] | 101 to 1000 nM
< 100 nM | O=C(NC[C@H](O)CN1CCc2ccccc2C1)c1cncc(NC2CCN(CC(F)(F)F)CC2)c1 [Compound 300] | 1000 to 10000 nM

EC50 [1] | SMILES | EC50 [2]
< 100 nM | CN1CCC(Nc2cccc(C(=O)NC[C@H](O)CN3CCc4ccccc4C3)c2)CC1 [Compound 239] | 1000 to 10000 nM
< 100 nM | O=C(NCC(O)CN1CCc2ccccc2C1)c1ccc(NC2CCOC2)cc1 (stereo not drawn) [Compound 129] | 1000 to 10000 nM
< 100 nM | CC(C)N1CCC(Oc2cccc(C(=O)NCC(O)CN3CCc4ccccc4C3)c2)C1 (stereo not drawn) [Compound 135] | 10000 to 50000 nM
101 to 1000 nM | O=C(NC[C@@H](O)CN1CCc2ccccc2C1)c1ccc2ncccc2c1 [Compound 218] | 10000 to 50000 nM
< 100 nM | CN(CCOc1cccc(C(=O)NCC(O)CN2CCc3ccccc3C2)c1)CC(N)=O (stereo not drawn) [Compound 277] | 1000 to 10000 nM
101 to 1000 nM | O=C1COc2cc(C(=O)NCC(O)CN3CCc4ccccc4C3)ccc2N1 (stereo not drawn) [Compound 89] | > 20000 nM
101 to 1000 nM | O=C(NC[C@@H](O)CN1CCc2ccccc2C1)c1cc(NC2CCOCC2)ncn1 [Compound 185] | 1000 to 10000 nM
< 100 nM | CS(=O)(=O)N1CCN(Cc2cccc(C(=O)NCC(O)CN3CCc4ccccc4C3)c2)CC1 (stereo not drawn) [Compound 91] | 1000 to 10000 nM
101 to 1000 nM | CN1CCN(c2cccc(C(=O)NCC(O)CN3CCc4ccccc4C3)c2)CC1 (stereo not drawn) [Compound 36] | 10000 to 50000 nM
< 100 nM | O=C(NCC(O)CN1CCc2ccccc2C1)c1ccc2ncccc2c1 (stereo not drawn) [Compound 68] | 1000 to 10000 nM
101 to 1000 nM | O=C(NC[C@H](O)CN1CCc2ccccc2C1)c1cc(OC2CCN(CC(F)(F)F)CC2)ncn1 [Compound 285] | 1000 to 10000 nM
< 100 nM | CN(c1ccc(C(=O)NCC(O)CN2CCc3ccccc3C2)cc1)C1CCOC1 (stereo not drawn) [Compound 144] | 1000 to 10000 nM
< 100 nM | COCCCOc1ccc(C(=O)NCC(O)CN2CCc3ccccc3C2)cc1 (stereo not drawn) [Compound 146] | 1000 to 10000 nM
< 100 nM | CN(c1cc(C(=O)NC[C@H](O)CN2CCc3ccccc3C2)ccn1)C1CCOCC1 [Compound 324] | 101 to 1000 nM
< 100 nM | CN(C)CCN(C)c1cc(C(=O)NC[C@H](O)CN2CCc3ccccc3C2)ccn1 [Compound 186] | 1000 to 10000 nM
< 100 nM | Cc1cnc(NC2CCOCC2)cc1C(=O)NC[C@H](O)CN1CCc2ccccc2C1 [Compound 307] | 101 to 1000 nM
101 to 1000 nM | O=C(NCC(O)CN1CCc2ccccc2C1)c1ccc2c(c1)OCCN2 (stereo not drawn) [Compound 88] | > 20000 nM
< 100 nM | CS(=O)(=O)N1CCC(Nc2cccc(C(=O)NC[C@H](O)CN3CCc4ccccc4C3)c2)CC1 [Compound 216] | 101 to 1000 nM
< 100 nM | O=C(NCC(O)CN1CCc2ccccc2C1)c1cccc(CN2CCN(CC(F)(F)F)CC2)c1 (stereo not drawn) [Compound 92] | 1000 to 10000 nM
< 100 nM | Cn1nccc1-c1cccc(C(=O)NCC(O)CN2CCc3ccccc3C2)c1 (stereo not drawn) [Compound 2, N-(3-(3,4-dihydroisoquinolin-2(1H)-yl)-2-hydroxypropyl)-3-(1-methyl-1H-pyrazol-5-yl)benzamide] | 1000 to 10000 nM
101 to 1000 nM | O=C(NCC(O)CN1CCc2ccccc2C1)c1cccc(C2CCNC2)c1 (stereo not drawn) [Compound 37] | > 20000 nM
< 100 nM | CN1CCC(Nc2ccc(C(=O)NCC(O)CN3CCc4ccccc4C3)cc2)CC1 (stereo not drawn) [Compound 139] | 1000 to 10000 nM
< 100 nM | CC(=O)N1CCC(Oc2cc(C(=O)NC[C@H](O)CN3CCc4ccccc4C3)ccn2)CC1 [Compound 205] | 101 to 1000 nM
101 to 1000 nM | O=C(NCC(O)CN1CCc2ccccc2C1)c1cccc(N2CCNCC2)c1 (stereo not drawn) [Compound 35, N-(3-(3,4-dihydroisoquinolin-2(1H)-yl)-2-hydroxypropyl)-3-(piperazin-1-yl)benzamide] | 10000 to 50000 nM
< 100 nM | CC(C)(C)c1cc(Nc2cc(C(=O)NC[C@H](O)CN3CCc4ccccc4C3)ccn2)n[nH]1 [Compound 326] | 101 to 1000 nM
